What was measured:
[1] = biological target: T1, hPPAR α (LBD) (Homo sapiens, UniProt Q07869); assay: GAL4-hPPAR α (LBD) luciferase reporter transactivation in CV-1 cells; type: cell-based; set-up: key: IA: inactive; settings: relative to 100% of compound of Example 2 of Patent Publication 4 at 10^−6 M
T1 construct: A receptor expression plasmid (pSG5-GAL4-hPPAR α or γ or δ (LBD)); GAL4 (fusion partner); expressed in transfected cells; host or cells: CV-1 cells (ATCC)
T1 sequence (Q07869 239-466 limits assumed): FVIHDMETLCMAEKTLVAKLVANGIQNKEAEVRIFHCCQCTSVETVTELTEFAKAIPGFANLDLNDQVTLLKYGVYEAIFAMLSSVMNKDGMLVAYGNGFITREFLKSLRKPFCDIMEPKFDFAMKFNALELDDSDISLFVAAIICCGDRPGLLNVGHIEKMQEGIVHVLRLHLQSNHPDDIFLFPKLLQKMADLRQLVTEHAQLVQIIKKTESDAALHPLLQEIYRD
Description: (§1) A receptor expression plasmid (pSG5-GAL4-hPPAR α or γ or δ (LBD)), a luciferase expression plasmid (pUC8-MH100x4-TK-Luc) and β-galactosidase expression plasmid (pCMX-β-GAL) (Kliewer, S. A., et. al., (1992) Nature, 358:771-774) are transfected into CV-1 cells (ATCC). After gene transfer utilizing a lipofection reagent DMRIE-C or Lipofectamin 2000 (Invitrogen), it is incubated for 42 hours in the presence of the test compound. Then, the luciferase activity and β-GAL activity are measured on the soluble cells. The luciferase activity is calibrated by the β-GAL activity. A relative ligand activity is calculated for each of the PPARα, γ and δ under the following conditions: a relative activity of PPAR α is calculated in consideration of a luciferase activity (assigned to 100%) of cells treated with the compound described in Example 2 of the aforementioned Patent Publication 4 (PPARα-selective agonist); a relative activity of PPAR γ is calculated in consideration of a luciferase activity (assigned to 100%) cells treated with Rosiglitazone; and a relative activity of PPAR δ is calculated in consideration of a luciferase activity (assigned to 100%) of cells treated with GW-501516. See the below-described Examples 22 and 23.
(§2) The PPARδ activating effects of test compounds (compounds of Examples) were measured by the following method:
as §1, with “(pUC8-MH100x-4-TK-Luc)” for “(pUC8-MH100x4-TK-Luc)”, “approx. 40” for “42”, “PPAR α,” for “PPARα,”, “GW-501516.” for “GW-501516. See the below-described Examples 22 and 23.”
(§3) The experimental results Table 28 were obtained by procedures similar to the procedures for pharmacological experimental described in Example 22.

[2] = biological target: T2, hPPAR γ (LBD) (Homo sapiens, UniProt P37231); assay: GAL4-hPPAR γ (LBD) luciferase reporter transactivation in CV-1 cells; type: cell-based; set-up: key: IA: inactive; settings: relative to 100% of Rosiglitazone at 10^−5 M
T2 construct: A receptor expression plasmid (pSG5-GAL4-hPPAR α or γ or δ (LBD)); GAL4 (fusion partner); expressed in transfected cells; host or cells: CV-1 cells (ATCC)
T2 sequence (P37231 238-503 limits assumed): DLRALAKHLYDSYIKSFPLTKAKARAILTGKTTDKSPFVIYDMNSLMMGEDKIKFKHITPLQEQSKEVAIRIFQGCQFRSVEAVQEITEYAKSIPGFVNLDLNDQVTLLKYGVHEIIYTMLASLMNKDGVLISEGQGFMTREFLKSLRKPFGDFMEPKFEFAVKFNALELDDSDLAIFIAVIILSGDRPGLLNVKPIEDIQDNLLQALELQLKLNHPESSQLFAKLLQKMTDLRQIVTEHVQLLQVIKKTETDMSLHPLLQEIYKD
Description: as §1, §2
as §1, with “(pUC8-MH100x-4-TK-Luc)” for “(pUC8-MH100x4-TK-Luc)”, “approx. 40” for “42”, “PPAR α,” for “PPARα,”, “GW-501516.” for “GW-501516. See the below-described Examples 22 and 23.”
as §3

[3] = biological target: T3, hPPAR δ (LBD) (Homo sapiens, UniProt Q03181); assay: GAL4-hPPAR δ (LBD) luciferase reporter transactivation in CV-1 cells; type: cell-based; settings: relative to 100% of GW-501516 at 10^−7 M
T3 construct: A receptor expression plasmid (pSG5-GAL4-hPPAR α or γ or δ (LBD)); GAL4 (fusion partner); expressed in transfected cells; host or cells: CV-1 cells (ATCC)
T3 sequence (Q03181 211-439 limits assumed): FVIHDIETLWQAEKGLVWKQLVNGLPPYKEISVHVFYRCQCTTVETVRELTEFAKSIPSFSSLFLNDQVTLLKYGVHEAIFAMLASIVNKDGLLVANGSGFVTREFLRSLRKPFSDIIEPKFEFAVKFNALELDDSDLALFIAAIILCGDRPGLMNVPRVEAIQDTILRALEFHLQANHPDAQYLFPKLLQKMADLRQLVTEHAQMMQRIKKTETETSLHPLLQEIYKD
Description: For determining PPARδ activating effect of the compounds according to the invention, PPARδ activating effects of test compounds (compounds of Examples) were measured by the following method:
as §1, §2
as §1, with “(pUC8-MH100x-4-TK-Luc)” for “(pUC8-MH100x4-TK-Luc)”, “approx. 40” for “42”, “PPAR α,” for “PPARα,”, “GW-501516.” for “GW-501516. See the below-described Examples 22 and 23.”
as §3

[4] = Table 28, test compound 10^−6 M

PPAR activity (%) α [1, 4] | melting point | PPAR activity (%) γ [2, 4] | PPAR activity (%) δ [3, 4] | PPAR activity (%) α ([1]; test compound 10^−6 M) | PPAR activity (%) γ ([2]; test compound 10^−6 M) | PPAR activity (%) δ ([3]; test compound 10^−6 M) | Structure (SMILES)
inactive | 139 to 143 °C | inactive | 92% |  |  |  | Cc1cc(C(=O)CCc2sc(-c3ccc(C(F)(F)F)cc3)cc2C(C)C)ccc1OCC(=O)O [Example 16, [4-[3-[3-Isopropyl-5-(4-trifluoromethylphenyl)thiophen-2-yl]propionyl]-2-methylphenoxy]acetic acid]
 | 160 to 163 °C |  |  | IA | IA | 86% | Cc1cc(C(=O)CCc2cc(-c3ccc(C(F)(F)F)cc3)nn2C(C)C)ccc1OCC(=O)O [Example 6, [4-[3-[1-Isopropyl-3-(4-trifluoromethylphenyl)-1H-pyrazol-5-yl]propionyl]-2-methylphenoxy]acetic acid]

From patent US20090240058A1, “Activator for Peroxisome Proliferator-Activating Receptor Delta” (priority 2005, published 2009)
